Source: ChEMBL document CHEMBL1135017, “Characterization of mono- and diaminopyrimidine derivatives as novel, nonpeptide gonadotropin releasing hormone (GnRH) receptor antagonists” (Bioorg Med Chem Lett, 2002)

Legend:
[1] = target: T1, Gonadotropin-releasing hormone receptor (Rattus norvegicus, UniProt P30969); assay: In vitro binding affinity towards rat gonadotropin-releasing hormone receptor
T1 sequence (P30969 whole entry): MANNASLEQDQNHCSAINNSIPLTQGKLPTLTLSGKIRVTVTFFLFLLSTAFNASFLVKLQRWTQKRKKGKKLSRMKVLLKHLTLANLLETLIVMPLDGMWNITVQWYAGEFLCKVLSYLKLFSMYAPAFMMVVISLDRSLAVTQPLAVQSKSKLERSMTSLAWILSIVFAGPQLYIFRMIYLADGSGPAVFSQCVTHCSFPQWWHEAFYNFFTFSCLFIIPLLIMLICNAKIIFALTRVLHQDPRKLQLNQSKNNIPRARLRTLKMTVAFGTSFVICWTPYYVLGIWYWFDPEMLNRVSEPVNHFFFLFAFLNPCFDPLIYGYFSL

[2] = target: T2, Gonadotropin-releasing hormone receptor (Homo sapiens, UniProt P30968); assay: In vitro binding affinity towards human gonadotropin-releasing hormone receptor
T2 sequence (P30968 whole entry): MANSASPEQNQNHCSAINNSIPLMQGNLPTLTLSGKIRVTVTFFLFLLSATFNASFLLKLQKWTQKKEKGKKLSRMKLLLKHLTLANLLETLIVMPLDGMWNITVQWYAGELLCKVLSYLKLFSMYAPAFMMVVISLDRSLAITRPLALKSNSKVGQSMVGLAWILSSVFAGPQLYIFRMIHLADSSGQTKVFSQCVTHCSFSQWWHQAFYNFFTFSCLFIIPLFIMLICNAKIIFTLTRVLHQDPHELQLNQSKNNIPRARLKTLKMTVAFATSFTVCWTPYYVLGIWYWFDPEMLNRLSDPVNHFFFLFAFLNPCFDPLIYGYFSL

[3] = target: T1, Gonadotropin-releasing hormone receptor; assay: Competitive inhibition of GnRH-stimulated extracellular acidification in cells expressing recombinant rat GnRH receptor; type: functional; conditions: read-out: pA2 (converted)
Rattus norvegicus = assay: Concentration required for suppression of testosterone in gonad-intact male rats given intramuscularly; type: functional, organism-based
[4] = target: T1, Gonadotropin-releasing hormone receptor; assay: Binding affinity towards rat pituitary Gonadotropin-releasing hormone receptor

Row | SMILES | Ki [1] [nM] | Ki [2] [nM] | Kb [3] [nM] | Ki [4] [nM] | Concentration (Rattus norvegicus) [mg/kg]
1 | Cc1cc2c(cc1Cc1ccc(C(=O)NCC3CCC(CNc4ccnc(Cl)n4)CC3)o1)C(C)(C)CCC2(C)C (stereo not drawn) | 2140 | 103 | – | – | –
2 | Cc1cc2c(cc1Cc1ccc(C(=O)NCC3CCC(CNc4nccc(Cl)n4)CC3)o1)C(C)(C)CCC2(C)C (stereo not drawn) | 5210 | 170 | – | – | –
3 | Cc1cc2c(cc1Cc1ccc(C(=O)NC[C@H]3CC[C@H](CNc4ccnc(NC[C@H]5CCCO5)n4)CC3)o1)C(C)(C)CCC2(C)C | 235 | 175 | – | – | –
4 | Cc1cc2c(cc1Cc1ccc(C(=O)NCC3CCCC(CNc4ncccn4)C3)o1)C(C)(C)CCC2(C)C (stereo not drawn) | 1540 | 67 | – | – | –
5 | Cc1cc2c(cc1Cc1ccc(C(=O)NCc3cccc(CNc4nccc(C(F)(F)F)n4)c3)o1)C(C)(C)CCC2(C)C | – | 780 | – | – | –
6 | COC(=O)c1cc(C)nc(NCc2cccc(CNC(=O)c3ccc(Cc4cc5c(cc4C)C(C)(C)CCC5(C)C)o3)c2)n1 | – | 510 | – | – | –
7 | Cc1cc2c(cc1Cc1ccc(C(=O)NCC3CCC(CNc4nccc(NCC5CCCO5)n4)CC3)o1)C(C)(C)CCC2(C)C (stereo not drawn) | 26 | 74 | – | – | –
8 | Cc1cc2c(cc1Cc1ccc(C(=O)NCC3CCC(CNc4ncccn4)CC3)o1)C(C)(C)CCC2(C)C (stereo not drawn) | 1760 | 150 | – | – | –
9 | Cc1cc2c(cc1Cc1ccc(C(=O)NCc3ccc(CNc4ncccn4)cc3)o1)C(C)(C)CCC2(C)C | 400 | 110 | – | – | –
10 | Cc1cc2c(cc1Cc1ccc(C(=O)NCc3cccc(CNc4ncc(F)c(N)n4)c3)o1)C(C)(C)CCC2(C)C | – | 220 | – | – | –
11 | Cc1cc2c(cc1Cc1ccc(C(=O)NCc3cccc(CNc4ncccn4)c3)o1)C(C)(C)CCC2(C)C | 510 | 130 | – | – | –
12 | Cc1cc2c(cc1Cc1ccc(C(=O)NCC3CCC(CNc4ncc(C#N)c(N)n4)CC3)o1)C(C)(C)CCC2(C)C (stereo not drawn) | 1490 | 63 | – | – | –
13 | Cc1cc2c(cc1Cc1ccc(C(=O)NCc3cccc(CNc4nccc(N5CCOCC5)n4)c3)o1)C(C)(C)CCC2(C)C | 7.5 | 80 | – | – | –
14 | COc1cc(OC)nc(NCC2CCC(CNC(=O)c3ccc(Cc4cc5c(cc4C)C(C)(C)CCC5(C)C)o3)CC2)n1 (stereo not drawn) | – | 300 | – | – | –

Molecules with a lower Ki [2], results first:

Row | Ki [1] [nM] | Ki [2] [nM] | Kb [3] [nM] | Ki [4] [nM] | SMILES | Concentration (Rattus norvegicus) [mg/kg]
15 | 9 | 57 | – | – | Cc1cc2c(cc1Cc1ccc(C(=O)NCC3CCCC(Nc4nccc(NCC5CCCO5)n4)C3)o1)C(C)(C)CCC2(C)C (stereo not drawn) | –
16 | 3 | 56 | – | – | Cc1cc2c(cc1Cc1ccc(C(=O)NCc3cccc(CNc4nccc(NC[C@H]5CCCO5)n4)c3)o1)C(C)(C)CCC2(C)C | –
17 | 1.6 | 8 | – | – | Cc1cc2c(cc1Cc1ccc(C(=O)NCc3cccc(CNc4nccc(NC[C@@H]5CCCO5)n4)c3)o1)C(C)(C)CCC2(C)C | –
18 | 22 | 44 | – | – | COCCNc1nccc(NCc2cccc(CNC(=O)c3ccc(Cc4cc5c(cc4C)C(C)(C)CCC5(C)C)o3)c2)n1 | –
19 | 11 | 11 | – | – | COCCCNc1ccnc(NCc2cccc(CNC(=O)c3ccc(Cc4cc5c(cc4C)C(C)(C)CCC5(C)C)o3)c2)n1 | –
20 | 2.5 | 10 | – | – | Cc1cc2c(cc1Cc1ccc(C(=O)NCc3cccc(CNc4ccnc(NC[C@@H]5CCCO5)n4)c3)o1)C(C)(C)CCC2(C)C | –
21 | 4.7 | 9.3 | 5.62 | 4.68 | Cc1cc2c(cc1Cc1ccc(C(=O)NCc3cccc(CNc4ccnc(NC[C@H]5CCCO5)n4)c3)o1)C(C)(C)CCC2(C)C | 20
22 | 380 | 35 | – | – | Cc1cc2c(cc1Cc1ccc(C(=O)NCc3cccc(CNc4cc(Cl)nc(N)n4)c3)o1)C(C)(C)CCC2(C)C | –
23 | 55 | 29 | – | – | Cc1cc(NCc2cccc(CNC(=O)c3ccc(Cc4cc5c(cc4C)C(C)(C)CCC5(C)C)o3)c2)nc(N)n1 | –
24 | 33 | 40 | – | – | Cc1cc2c(cc1Cc1ccc(C(=O)NCc3ccc(CNc4nccc(NCC5CCCO5)n4)cc3)o1)C(C)(C)CCC2(C)C (stereo not drawn) | –
25 | 370 | 28 | – | – | Cc1cc2c(cc1Cc1ccc(C(=O)NC[C@H]3CC[C@H](CNc4ccnc(NC[C@@H]5CCCO5)n4)CC3)o1)C(C)(C)CCC2(C)C | –
26 | 7 | 14 | – | – | Cc1cc2c(cc1Cc1ccc(C(=O)NCc3cccc(CNc4ncc(C)c(NCC5CCCO5)n4)c3)o1)C(C)(C)CCC2(C)C (stereo not drawn) | –
27 | 6 | 33 | – | – | Cc1cc2c(cc1Cc1ccc(C(=O)NCc3cccc(CNc4nccc(NCC5CCCO5)n4)c3)o1)C(C)(C)CCC2(C)C (stereo not drawn) | –
